System: Caco-2/THP1-Blue cell co-cultures
Test: Transepithelial electrical resistance (TEER) of Caco-2/THP1-Blue co-cultures, model of mild intestinal barrier disruption
Format: cell-based, human
Conditions: 48 h colonic fermentation samples, filtered and sterilized; TEER after 24 h
Text: This study used an in vitro cell co-culture to create a model of mild intestinal barrier disruption. This method utilizes a co-culture model of intestinal epithelial-like cells (Caco-2 cells) and human monocytes/macrophages (THP1 cells) and is based on the work of Satsu and colleagues (PMID: 17010338) and is described by Daguet et al. (doi: 10.1016r.jff.2015.11.005). Caco-2 cells are allowed to grow into a monolayer that has physiological properties of the intestinal lining, including tight junctions. Tight junction proteins keep adjacent epithelial cells together, which forms a barrier that is virtually impermeable to macromolecules. The “tightness” of tight junctions can be measured as transepithelial electrical resistance (TEER), with a high TEER corresponding to a tighter barrier. THP1 monocytes were originally isolated from a human patient with acute leukemia. When stimulated with phorbol 12-myristate 13-acetate (PMA), these cells develop into macrophage-like cells that are able to adhere and are primed for toll-like receptor (TLR) signaling. […] TEER was measured after pre-treatment of the cell co-cultures, representing a baseline (0 hour) value. […] Changes in TEER values were measured after 24 hours.
TEER was measured 24 h after pre-treatment of the co-cultures and each 24 h value was normalized to its corresponding Oh value and is shown as percentage of initial value. […]

CCCC(=O)OCC(COC(=O)CCC)OC(=O)CCC [tributyrin]
barrier integrity (TEER) compared to the blank control: improved barrier integrity

From patent US20240252557A1, “MULTIBIOTIC SUPPLEMENTS” (Natals, Inc., priority 2023, published 2024)
